Several values for one entry are separate records, joined by “and”; a condition that tells them apart may be missing. Equal entries are not always repeated. Inconclusive results and toxic doses are left out.
Test system: CD2F1 mice, L1210 leukemia ip, survival T/C
Assay: NCI In Vivo Anticancer Drug Screen. Data for tumor model L1210 Leukemia (intraperitoneal) in CD2F1 (CDF1) mice
Conditions: higher = longer survival
In short: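 Mice carrying a transplanted tumor received test compound or vehicle alone. The value is the measurement in the treated group divided by that in the vehicle-treated control group.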

[1] = endpoint: mean survival time, dose: 100.0 mg/kg/injection, schedule: Q01DX001 (ip), vehicle: saline
[2] = endpoint: mean survival time, dose: 100.0 mg/kg/injection, schedule: Q01DX009 (ip), vehicle: saline with Tween-80
[3] = endpoint: mean survival time, dose: 200.0 mg/kg/injection, schedule: Q01DX001 (ip), vehicle: saline
[4] = endpoint: mean survival time, dose: 400.0 mg/kg/injection, schedule: Q01DX001 (ip), vehicle: saline
[5] = endpoint: mean survival time, dose: 200.0 mg/kg/injection, schedule: Q01DX009 (ip), vehicle: saline with Tween-80
[6] = endpoint: mean survival time, dose: 100.0 mg/kg/injection, schedule: Q04DX003 (ip), vehicle: saline with Tween-80
[7] = endpoint: mean survival time, dose: 200.0 mg/kg/injection, schedule: Q04DX003 (ip), vehicle: saline with Tween-80
[8] = endpoint: mean survival time, dose: 100.0 mg/kg/injection, schedule: Q01DX009 (ip), vehicle: Klucel (hydroxypropylcellulose) (HPC)
[9] = endpoint: mean survival time, dose: 50.0 mg/kg/injection, schedule: Q01DX009 (ip), vehicle: saline with Tween-80

COc1cc2cccnc2c2[nH]cc(C(=O)O)c(=O)c12
T/C [1]: 107 % of control
T/C [2]: 97 % of control
T/C [3]: 100 % of control
T/C [4]: 97 % of control

Cc1cnccc1N=Nc1ccc(N(C)C)cc1
T/C [2]: 117 % of control
T/C [5]: 102 % of control
T/C (endpoint: mean survival time, dose: 400.0 mg/kg/injection, schedule: Q01DX009 (ip), vehicle: saline with Tween-80): 96 % of control

c1ccc(CCSc2ncnc3nc[nH]c23)cc1
T/C (endpoint: mean survival time, dose: 100.0 mg/kg/injection, schedule: Q01DX007 (ip), vehicle: saline): 103 % of control
T/C (endpoint: mean survival time, dose: 100.0 mg/kg/injection, schedule: Q01DX009 (ip), vehicle: saline): 122 % of control
T/C (endpoint: mean survival time, dose: 100.0 mg/kg/injection, schedule: Q03DX003 (ip), vehicle: saline): 96 % of control
T/C (endpoint: mean survival time, dose: 100.0 mg/kg/injection, schedule: Q04DX003 (ip), vehicle: saline): 98 % of control
T/C (endpoint: mean survival time, dose: 200.0 mg/kg/injection, schedule: Q01DX007 (ip), vehicle: saline): 111 % of control
T/C (endpoint: mean survival time, dose: 200.0 mg/kg/injection, schedule: Q01DX009 (ip), vehicle: saline): 113 % of control
T/C (endpoint: mean survival time, dose: 200.0 mg/kg/injection, schedule: Q03DX003 (ip), vehicle: saline): 102 % of control
T/C (endpoint: mean survival time, dose: 200.0 mg/kg/injection, schedule: Q04DX003 (ip), vehicle: saline): 103 % of control
T/C (endpoint: mean survival time, dose: 400.0 mg/kg/injection, schedule: Q01DX007 (ip), vehicle: saline): 120 % of control
T/C (endpoint: mean survival time, dose: 400.0 mg/kg/injection, schedule: Q01DX009 (ip), vehicle: saline): 124 % of control
T/C (endpoint: mean survival time, dose: 400.0 mg/kg/injection, schedule: Q03DX003 (ip), vehicle: saline): 106 % of control
T/C (endpoint: mean survival time, dose: 400.0 mg/kg/injection, schedule: Q04DX003 (ip), vehicle: saline): 106 % of control

CC(Cl)CN(CC(C)Cl)c1ccc2c(c1)Cc1cc(F)ccc1-2 (configuration not stated)
T/C [6]: 98 % of control
T/C [7]: 96 % of control
T/C (endpoint: mean survival time, dose: 400.0 mg/kg/injection, schedule: Q04DX003 (ip), vehicle: saline with Tween-80): 100 % of control

O=C(Nc1cccc(Cl)c1)c1ccc(C(=O)Nc2cccc(Cl)c2)cc1
T/C (endpoint: mean survival time, dose: 75.0 mg/kg/injection, schedule: Q01DX001 (ip), vehicle: saline): 100 % of control
T/C (endpoint: mean survival time, dose: 150.0 mg/kg/injection, schedule: Q01DX001 (ip), vehicle: saline): 98 % of control
T/C (endpoint: mean survival time, dose: 300.0 mg/kg/injection, schedule: Q01DX001 (ip), vehicle: saline): 102 % of control

CCOC(=O)Nc1ccc2nnn(C3OC(CO)C(O)C3O)c2n1 (configuration not stated)
T/C (endpoint: mean survival time, dose: 12.5 mg/kg/injection, schedule: Q01DX005 (ip), vehicle: water): 94 % of control
T/C (endpoint: mean survival time, dose: 25.0 mg/kg/injection, schedule: Q01DX005 (ip), vehicle: water): 102 % of control
T/C (endpoint: mean survival time, dose: 50.0 mg/kg/injection, schedule: Q01DX005 (ip), vehicle: water): 98 % of control
T/C (endpoint: mean survival time, dose: 100.0 mg/kg/injection, schedule: Q01DX005 (ip), vehicle: water): 102 % of control
T/C (endpoint: mean survival time, dose: 200.0 mg/kg/injection, schedule: Q01DX005 (ip), vehicle: water): 94 % of control
T/C (endpoint: mean survival time, dose: 400.0 mg/kg/injection, schedule: Q01DX005 (ip), vehicle: water): 94 % of control

CCC[CH2][Sn]([CH2]CCC)[CH2]CCC.CCC[CH2][Sn]([CH2]CCC)[CH2]CCC
T/C (endpoint: mean survival time, dose: 12.5 mg/kg/injection, schedule: Q04DX003 (ip), vehicle: Klucel (hydroxypropylcellulose) (HPC)): 93 % of control
T/C (endpoint: mean survival time, dose: 25.0 mg/kg/injection, schedule: Q04DX003 (ip), vehicle: saline): 97 % of control
T/C (endpoint: mean survival time, dose: 50.0 mg/kg/injection, schedule: Q04DX003 (ip), vehicle: saline): 97 % of control

COC1CCC2=C(C1)C(=O)CC1c3ccccc3CN21 (configuration not stated)
T/C [6]: 97 % of control

NS(=O)(=O)c1ccc(N2CCCCC2)c([N+](=O)[O-])c1
T/C (endpoint: mean survival time, dose: 100.0 mg/kg/injection, schedule: Q01DX009 (ip), vehicle: other): 95 % of control
T/C (endpoint: mean survival time, dose: 100.0 mg/kg/injection, schedule: Q04DX002 (ip), vehicle: saline with Tween-80): 91 % of control
T/C (endpoint: mean survival time, dose: 200.0 mg/kg/injection, schedule: Q01DX009 (ip), vehicle: other): 95 % of control
T/C (endpoint: mean survival time, dose: 200.0 mg/kg/injection, schedule: Q04DX002 (ip), vehicle: saline with Tween-80): 98 % of control
T/C (endpoint: mean survival time, dose: 400.0 mg/kg/injection, schedule: Q01DX009 (ip), vehicle: other): 101 % of control
T/C (endpoint: mean survival time, dose: 400.0 mg/kg/injection, schedule: Q04DX002 (ip), vehicle: saline with Tween-80): 100 % of control

O=C(CCl)NCCCCNC(=O)CCl
T/C [1]: 101 % of control
T/C [3]: 98 % of control
T/C [4]: 100 % of control

CCOC(=O)C(C(=O)OCC)C(C)C
T/C [1]: 97 % of control
T/C [3]: 97 % of control
T/C [4]: 110 % of control

NC1CCCCC1N.O=C([O-])c1cc(S(=O)(=O)Nc2cc(S(=O)(=O)[O-])cc3cc(S(=O)(=O)[O-])cc(O)c23)ccc1[O-].[Pt+4]
T/C (endpoint: median survival time, dose: 0.39 mg/kg/injection, schedule: Q04DX003 (ip), vehicle: saline with Tween-80): 124 % of control
T/C (endpoint: median survival time, dose: 1.56 mg/kg/injection, schedule: Q04DX003 (ip), vehicle: saline with Tween-80): 181 % of control
T/C (endpoint: median survival time, dose: 3.12 mg/kg/injection, schedule: Q04DX003 (ip), vehicle: saline with Tween-80): 253 % of control and 264 % of control
T/C (endpoint: median survival time, dose: 6.25 mg/kg/injection, schedule: Q04DX003 (ip), vehicle: saline with Tween-80): 289 % of control and 103 % of control

N[N+]#COC1C(C(=O)NN)C1C(=O)NN (configuration not stated)
T/C (endpoint: median survival time, dose: 50.0 mg/kg/injection, schedule: Q04DX002 (ip), vehicle: saline with Tween-80): 94 % of control
T/C (endpoint: median survival time, dose: 100.0 mg/kg/injection, schedule: Q04DX002 (ip), vehicle: saline with Tween-80): 105 % of control
T/C (endpoint: median survival time, dose: 400.0 mg/kg/injection, schedule: Q04DX002 (ip), vehicle: saline with Tween-80): 105 % of control

[O-]/[N+](=C\c1ccccc1)c1ccccc1
T/C [6]: 97 % of control
T/C [7]: 90 % of control

COc1cc(/C=N/NC(=O)c2ccccc2)ccc1O
T/C [8]: 97 % of control
T/C (endpoint: mean survival time, dose: 200.0 mg/kg/injection, schedule: Q01DX009 (ip), vehicle: Klucel (hydroxypropylcellulose) (HPC)): 97 % of control
T/C (endpoint: mean survival time, dose: 400.0 mg/kg/injection, schedule: Q01DX009 (ip), vehicle: Klucel (hydroxypropylcellulose) (HPC)): 97 % of control

C[C@]12CCCC[C@@H]1CC[C@@H]1[C@@H]2CC[C@]2(C)[C@@H](N(CCO)CCCO)CC[C@@H]12
T/C (endpoint: mean survival time, dose: 100.0 mg/kg/injection, schedule: Q04DX003 (sc), vehicle: steriod suspending solution): 98 % of control
T/C (endpoint: mean survival time, dose: 200.0 mg/kg/injection, schedule: Q04DX003 (sc), vehicle: steriod suspending solution): 91 % of control
T/C (endpoint: mean survival time, dose: 400.0 mg/kg/injection, schedule: Q04DX003 (sc), vehicle: steriod suspending solution): 107 % of control

O=C(O)CC(C(=O)O)=C(c1ccccc1)c1ccccc1
T/C [1]: 98 % of control
T/C [3]: 95 % of control
T/C [4]: 101 % of control

CN1CCc2c(c3ccccc3c3ccccc23)C1
T/C (endpoint: mean survival time, dose: 3.12 mg/kg/injection, schedule: Q01DX009 (ip), vehicle: Klucel (hydroxypropylcellulose) (HPC)): 104 % of control
T/C (endpoint: mean survival time, dose: 6.25 mg/kg/injection, schedule: Q01DX009 (ip), vehicle: Klucel (hydroxypropylcellulose) (HPC)): 101 % of control
T/C (endpoint: mean survival time, dose: 12.5 mg/kg/injection, schedule: Q01DX009 (ip), vehicle: Klucel (hydroxypropylcellulose) (HPC)): 97 % of control
T/C (endpoint: mean survival time, dose: 25.0 mg/kg/injection, schedule: Q01DX009 (ip), vehicle: Klucel (hydroxypropylcellulose) (HPC)): 95 % of control
T/C (endpoint: mean survival time, dose: 50.0 mg/kg/injection, schedule: Q01DX009 (ip), vehicle: Klucel (hydroxypropylcellulose) (HPC)): 106 % of control
T/C [8]: 113 % of control

CC(=O)Oc1ccc([N+](=O)[O-])cc1[N+](=O)[O-]
T/C (endpoint: mean survival time, dose: 25.0 mg/kg/injection, schedule: Q04DX002 (ip), vehicle: Klucel (hydroxypropylcellulose) (HPC)): 93 % of control

COc1ccc2c(c1OC(C)=O)-c1cc(O)cc3c1C(C2)N(C(=O)CN(CCCl)CCCl)CC3 (configuration not stated)
T/C (endpoint: mean survival time, dose: 6.25 mg/kg/injection, schedule: Q04DX003 (ip), vehicle: DMSO): 98 % of control
T/C (endpoint: mean survival time, dose: 12.5 mg/kg/injection, schedule: Q04DX003 (ip), vehicle: DMSO): 91 % of control
T/C (endpoint: mean survival time, dose: 25.0 mg/kg/injection, schedule: Q04DX003 (ip), vehicle: DMSO): 100 % of control
T/C (endpoint: mean survival time, dose: 50.0 mg/kg/injection, schedule: Q04DX003 (ip), vehicle: DMSO): 102 % of control

Cc1cc(O)c(N=Nc2ccc(Br)cc2)cc1C
T/C [9]: 97 % of control
T/C [2]: 93 % of control
T/C [5]: 97 % of control

CCCCCCCCCCCCCCCC(=O)N1CCN(C)CC1
T/C [9]: 89 % of control
T/C [2]: 91 % of control
T/C [6]: 93 % of control
T/C [7]: 90 % of control

CC(C)(CNC1CCCCC1)OC(=O)c1ccc(N)cc1
T/C (endpoint: mean survival time, dose: 5.0 mg/kg/injection, schedule: Q01DX001 (ip), vehicle: saline): 102 % of control
T/C (endpoint: mean survival time, dose: 10.0 mg/kg/injection, schedule: Q01DX001 (ip), vehicle: saline): 96 % of control
T/C (endpoint: mean survival time, dose: 20.0 mg/kg/injection, schedule: Q01DX001 (ip), vehicle: saline): 98 % of control
T/C (endpoint: mean survival time, dose: 40.0 mg/kg/injection, schedule: Q01DX001 (ip), vehicle: saline): 104 % of control

— PubChem BioAssay AID256 (DTP/NCI, 2004)
